Laboratory results as given in patent US8765785B2, “Solifenacin salts” (Crystal Pharma, S.A.U., priority 2010, dated 2014).
Like-named read-outs stand apart in the source and are kept apart here.

How the values were obtained:
Type in all cases: physicochemical
[1] = Stability of the solid salt on standing (colour, UV-HPLC method 2)
Method: HPLC Method 2: To Follow the End Points of the Reactions Performed and the Rest of the Impurities:
(§1) 10 g of solifenacin succinate (example 2) were dissolved in 15 mL of water. The solution was frozen by nitrogen liquid and was placed in the freeze-drying equipment at −60° C. under vacuum.

[2] = Stability of tablets of solifenacin salts over 0, 3 and 6 months (Example 9); conditions: for DESCRIPTION: film-coated tablets (Example 8); for course of the amount of F1 impurity: 6 month period
Method: To test the stability of solifenacin fumarate, tablets are prepared by wet granulation following the procedure disclosed in US 2008/039516, the contents of which are incorporated in their entirety. A specific example of preparing a tablet containing solifenacin fumarate is given in […] below.
25 parts by weight of Hypromellose (Pharmacoat 603) are dissolved and agitated in 130 parts of purified water with an air motor stirrer (IMA) to prepare a binder solution (at a concentration of 20.0% (w/v)). Then, 50 parts of solifenacin salt, 389 parts of lactose monohydrate (Granulac) and 128 parts of corn starch (C*PharmGel 03406) are mixed together (pre-mix) in a single pot granulator (IMA Zanchetta 3 L capacity).
The binder solution is sprayed over the pre-mix at room temperature with a flow rate of 60 ml/min, impeller speed of 300 rpm and chopper speed of 1500 rpm for wet granulation. After spraying, kneading takes place for 3 min with impeller speed of 300 rpm. After granulation, the granules are dried at a charged temperature of the jacket bowl of 80° C. under vacuum conditions, tilting movement of the bowl of 90° and intermittent speed (120 rpm) of the impeller for 120 seconds.
The granules are dried until a final moisture of 2.5%-1.0% has been reached. 6 parts of magnesium stearate are added to the dried granules for blending with a biconic mixer (SAR Labortecnic). Thereafter, the resulting mixture is compressed with a rotary tabletting machine (KILIAN IMA Pressima) with 6.0 mm punches at a compression pressure sufficient to achieve a hardness of the tablet of more than 50 N and a tablet weight of 60 mg.
The resulting tablets are coated in a non perforated pan (IMA, type HT25). Coating is performed with a solution prepared by dissolving 20 parts of Opadry II pink (Colorcon) in 200 parts of purified water using an air motor stirrer (IMA). Coating is achieved at a charge air temperature of 60-80° C., a pan rotation velocity of 6-13 rpm, and coating fluid feed rate of 16-40 ml/min for a 3.3% ratio of the component to the tablet weight, to obtain the film-coated tablet.
The stability of tablets formulated with solifenacin succinate and solifenacin fumarate, respectively, was tested in a side-by-side comparison. […] For both salts the amount of solifenacin was assayed by HPLC at 0, 3 and 6 months and the amount of “F1 impurity” was also measured. The results are provided in the tables below and are illustrated in FIGS. 9 and 10.

[3] = Conversion of the crystalline salt to the amorphous form (lyophilization, vacuum evaporation; PXRD, DSC); conditions: for solid form after lyophilization of an aqueous solution: freeze-drying, -60° C. under vacuum, 15 hours, PXRD and DSC
Method: as §1
10 g of solifenacin fumarate (example 1) were dissolved in 600 ml of water at 60° C. The solution was frozen by nitrogen liquid and was placed in the freeze-drying equipment at −60° C. under vacuum.
5 g of solifenacin fumarate (example 1) was dissolved in 50 ml of methanol (1% of water) and evaporated under vacuum at 50° C.

[4] = Solubility in water
Method: Therefore, when the procedure to obtain tablets comprising solifenacin fumarate is carried out by wet granulation, the presence of water is not such an important factor.
However, the low solubility of the solifenacin fumarate avoids this problem. The difference in solubility also makes it easier to obtain solid pharmaceutical compositions of solifenacin fumarate since the drying phase is reduced.

| Compound | DESCRIPTION ([2]; 3 MONTHS) | DESCRIPTION ([2]; 6 MONTHS) | DESCRIPTION ([2]; INITIAL) | ASSAY AMOUNT (amount of solifenacin by HPLC) ([2]; tablets, 3 MONTHS) [%] | CHROMATOGRAPHIC IMPURITY (F1 impurity) ([2]; tablets, 3 MONTHS) [%] | HARDNESS ([2]; tablets, 3 MONTHS) [N] | LOSS ON DRYING ([2]; tablets, 3 MONTHS) [%] | MEDIUM WEIGHT ([2]; tablets, 3 MONTHS) [mg] | ASSAY AMOUNT (amount of solifenacin by HPLC) ([2]; tablets, 6 MONTHS) [%] | CHROMATOGRAPHIC IMPURITY (F1 impurity) ([2]; tablets, 6 MONTHS) [%] | HARDNESS ([2]; tablets, 6 MONTHS) [N] | LOSS ON DRYING ([2]; tablets, 6 MONTHS) [%] | MEDIUM WEIGHT ([2]; tablets, 6 MONTHS) [mg] | course of the amount of F1 impurity ([2]; tablets) | ASSAY AMOUNT (amount of solifenacin by HPLC) ([2]; tablets, INITIAL) [%] | CHROMATOGRAPHIC IMPURITY (F1 impurity) ([2]; tablets, INITIAL) [%] | HARDNESS ([2]; tablets, INITIAL) [N] | LOSS ON DRYING ([2]; tablets, INITIAL) [%] | MEDIUM WEIGHT ([2]; tablets, INITIAL) [mg] | solid form after lyophilization of an aqueous solution [3] | other results |
| --- | --- | --- | --- | --- | --- | --- | --- | --- | --- | --- | --- | --- | --- | --- | --- | --- | --- | --- | --- | --- | --- |
| O=C(O[C@H]1CN2CCC1CC2)N1CCc2ccccc2[C@@H]1c1ccccc1 [amorphous form of solifenacin succinate, solifenacin succinate] | – | – | – | – | – | – | – | – | – | – | – | – | – | – | – | – | – | – | – | – | amount of new impurity with relative retention time 0.93 ([1]; left to stand for ten days, HPLC method 2): 0.14%; time until the white solid turned colored ([1]; solid on standing): 2 to 3 days; colour change of the white solid ([1]; three days after freeze-drying): turned brown-colored |
| O=C(O[C@H]1CN2CCC1CC2)N1CCc2ccccc2[C@@H]1c1ccccc1 [solifenacin succinate] | pink biconvex | pink biconvex | pink biconvex | 96.8 | <0.06 | 98 | 2.43 | 124.80 | 94.7 | 0.91 | 102 | 2.39 | 126.26 | increases in the 6 month period | 98.7 | <0.05 | 98 | 2.40 | 125.57 | quite easy to obtain the desired amorphous form | colouring / instability on standing [1]: do not have this problem; solubility [4]: 727 mg/mL |
| solifenacin fumarate | pink biconvex | pink biconvex | pink biconvex | 99.4 | <0.05 | 73 | 2.01 | 124.21 | 99.6 | <0.05 | 66 | 2.24 | 125.51 | remains at the constant low level | 98.2 | <0.05 | 75 | 2.05 | 124.54 | crystalline form | stability in tablets, conclusion in words ([2]; tablets, 6 month side-by-side comparison): much more stable than the succinate salt; colouring / instability on standing ([1]; crystalline forms): do not have this problem; solid form after lyophilization of an aqueous solution ([3]; listed as fumarate salt): remains crystalline; solid form after evaporation under vacuum ([3]; methanol (1% of water), evaporated under vacuum at 50° C.): crystalline form; solubility in water [4]: 11.25 mg/mL |
